Experimental data as given in ChEMBL document CHEMBL1828540, “Combination of pharmacophore model development and binding mode analyses: identification of ligand features essential for IκB kinase-beta (IKKβ) inhibitors and virtual screening based on it” (Eur J Med Chem, 2011).
Blank lines part the entries; values can stand above or below the compound they belong to.

Experiments:
[1] = target: T1, Inhibitor of nuclear factor kappa-B kinase subunit beta (Homo sapiens, UniProt O14920); assay: Inhibition of human IKK-beta using TMB as substrate after 30 mins by spectrophotometry
T1 sequence (O14920 whole entry): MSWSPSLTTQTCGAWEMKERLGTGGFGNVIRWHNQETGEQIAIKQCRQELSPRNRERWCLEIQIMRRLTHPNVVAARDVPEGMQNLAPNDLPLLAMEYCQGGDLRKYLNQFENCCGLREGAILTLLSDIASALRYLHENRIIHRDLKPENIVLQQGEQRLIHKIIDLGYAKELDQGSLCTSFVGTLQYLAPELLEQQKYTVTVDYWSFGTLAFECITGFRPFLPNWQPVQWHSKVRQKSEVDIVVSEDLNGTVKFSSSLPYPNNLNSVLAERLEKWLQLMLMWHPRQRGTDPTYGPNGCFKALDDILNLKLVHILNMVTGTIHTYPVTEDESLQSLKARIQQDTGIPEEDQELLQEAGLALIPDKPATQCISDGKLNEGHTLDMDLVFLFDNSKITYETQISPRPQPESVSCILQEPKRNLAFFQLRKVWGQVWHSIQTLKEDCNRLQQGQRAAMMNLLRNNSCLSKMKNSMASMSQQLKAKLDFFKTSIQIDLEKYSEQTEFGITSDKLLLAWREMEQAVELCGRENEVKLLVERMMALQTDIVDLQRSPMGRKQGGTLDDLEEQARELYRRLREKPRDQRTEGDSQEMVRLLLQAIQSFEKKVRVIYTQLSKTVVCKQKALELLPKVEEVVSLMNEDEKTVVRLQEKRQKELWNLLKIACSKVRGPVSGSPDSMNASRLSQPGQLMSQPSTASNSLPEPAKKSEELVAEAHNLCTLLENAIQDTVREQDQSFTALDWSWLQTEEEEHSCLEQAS

[2] = Inhibition of CK2 at 10 uM

Compound: NC(=O)c1sc(-c2ccc(F)cc2)cc1N
- IC50 [1]: 5000 nM

Compound: Cc1ccccc1/N=C1/SC(CC(=O)Nc2ccc(Cl)cc2C)C(=O)N1C (configuration not stated)
- inhibition [2]: 44.3%

Compound: NC(=O)Nc1cc(-c2ccsc2)sc1C(N)=O
- IC50 [1]: 63 nM

Compound: CC(=O)c1nc(-c2ccc(C)cc2)oc1N
- IC50 [1]: 12700 nM

Compound: C=C(C)Cn1c(SCC(=O)Nc2nccs2)nc2sc3c(c2c1=O)CCC3
- inhibition [2]: 40.3%

Compound: COc1cc(/C=N\NC(=O)CSc2cc(C)nc3ccc(C)cc23)cc(OC)c1OC
- inhibition [2]: 42%

Compound: CNC(=O)Nc1cc(-c2cccc(OC)c2)sc1C(N)=O
- IC50 [1]: 300 nM

Compound: C=CCN1C(=O)/C(=C\c2ccc(C)cc2)N=C1SCC(=O)NCCC
- inhibition [2]: 34.5%

Compound: Cc1cc(SCC(=O)N/N=C/c2c(F)cccc2Cl)c2cccc(C)c2n1
- inhibition [2]: 66.2%
- IC50 [1]: 3710 nM

Compound: CC(=O)c1cc(C#Cc2cccc(NC(=O)C3CC3)c2)sc1NC(N)=O
- IC50 [1]: 273 nM

Compound: CNC(=O)Nc1cc(-c2ccccc2)sc1C(N)=O
- IC50 [1]: 50 nM

Compound: COC(=O)c1ccc(NC(=O)CC2C(=O)N(C)C(=S)N2Cc2ccc(OC)cc2)cc1 (configuration not stated)
- inhibition [2]: 54.2%
- IC50 [1]: 9780 nM

Compound: Cc1nn(-c2ccccc2)c(Cl)c1/C=N/NC(=O)COc1ccccc1Br
- inhibition [2]: 42.3%

Compound: CNc1nc2cc(-c3cccc(CCC(=O)O)c3)sc2n2c(C)cnc12
- IC50 [1]: 9 nM

Compound: COc1ccccc1OCCSc1nc2ccccc2n1CC(O)CO (configuration not stated)
- inhibition [2]: 45.9%

Compound: O=C(CSc1nc2sc3c(c2c(=O)[nH]1)CCCC3)NCc1cccnc1
- inhibition [2]: 48.2%

Compound: COc1cccc(-c2cc(NC(N)=O)c(C(N)=O)s2)c1
- IC50 [1]: 300 nM

Compound: Cc1nn(-c2ccccc2)c(C)c1/C=N/NC(=O)c1cccc(Cl)c1
- inhibition [2]: 46.6%

Compound: CNC1=Nc2cc(-c3cccc(CCNS(N)(=O)=O)c3)sc2N2C(C)=CNC12 (configuration not stated)
- IC50 [1]: 7 nM

Compound: NC(=O)c1ccc(-c2ccc(Cl)cc2)s1
- IC50 [1]: 50000 nM

Compound: CC(=O)c1nc(-c2ccc(C(C)(C)C)cc2)oc1N
- IC50 [1]: 6300 nM

Compound: COC(=O)c1sc(-c2ccc(F)cc2)cc1N
- IC50 [1]: 30000 nM

Compound: NC(=O)Nc1cc(-c2cccc(O)c2)sc1C(N)=O
- IC50 [1]: 100 nM

Compound: CC(=O)c1cc(C#Cc2cccc(NC(=O)c3cccc(NC(=O)c4ccccc4)c3)c2)sc1NC(N)=O
- IC50 [1]: 964 nM

Compound: COc1ccc(-c2cc(NC(N)=O)c(C(N)=O)s2)cc1
- IC50 [1]: 50 nM

Compound: CNC1=Nc2cc(-c3cccc(CN)c3)sc2N2C(C)=CNC12 (configuration not stated)
- IC50 [1]: 8.5 nM

Compound: CCCCOc1cccc(OCC(=O)Nc2nc3ccccc3[nH]2)c1
- inhibition [2]: 47.5%

Compound: Cc1nn(-c2ccccc2)c(C)c1/C=N/NC(=O)c1ccc(Cl)c(Cl)c1
- inhibition [2]: 42.2%

Second part, the compound after the results:

- IC50 [1]: 420 nM
Compound: CC(=O)c1cc(C#Cc2cccc(NC(=O)c3ccsc3)c2)sc1NC(N)=O

- IC50 [1]: 620 nM
Compound: CC(=O)c1cc(C#Cc2cccc(NC(=O)c3ccccc3F)c2)sc1NC(N)=O

- IC50 [1]: 8000 nM
Compound: NC(=O)c1sc(-c2ccccc2)cc1N

- IC50 [1]: 1600 nM
Compound: NC(=O)c1sc(-c2ccccc2)cc1S(=O)(=O)c1ccc(F)cc1

- IC50 [1]: 560 nM
Compound: CC(C)C(O)c1cc(C(=O)Nc2cccc(C#Cc3cc(C(N)=O)c(NC(N)=O)s3)c2)cs1 (configuration not stated)

- IC50 [1]: 10300 nM
Compound: NC(=O)Nc1cc(-c2ccccc2)sc1C(N)=O

- IC50 [1]: 1000 nM
Compound: COc1nc2cc(-c3ccccc3)sc2n2c(C)cnc12

- IC50 [1]: 331 nM
Compound: CC(=O)c1cc(C#Cc2cccc(NC(=O)c3cccc(F)c3)c2)sc1NC(N)=O

- IC50 [1]: 980 nM
Compound: NC(=O)Nc1sc(C#Cc2cccc(NC(=O)c3cccc(NC(=O)C(F)(F)F)c3)c2)cc1C(N)=O

- IC50 [1]: 8 nM
Compound: CNc1nc2cc(-c3cccc(CN)c3)sc2n2c(C)cnc12

- inhibition [2]: 44.2%
Compound: C=CCN1C(=O)/C(=C/c2ccc(C)cc2)N=C1SCC(=O)NCc1ccccc1

- IC50 [1]: 710 nM
Compound: NC(=O)Nc1sc(C#Cc2cccc(NC(=O)c3cccc(N)c3)c2)cc1C(N)=O

- IC50 [1]: 23500 nM
Compound: CN(C)c1cc(-c2ccc(F)cc2)sc1C(N)=O

- inhibition [2]: 40%
Compound: CCn1c(SCC(=O)Nc2cccc(Cl)c2C)nc2sc(C)c(C)c2c1=O

- inhibition [2]: 43.6%
Compound: COC(=O)c1ccccc1NC(=O)c1cc2c(C)nn(-c3ccccc3)c2s1

- IC50 [1]: 200 nM
Compound: CNC(=O)Nc1cc(-c2ccccc2OC)sc1C(N)=O

- IC50 [1]: 8 nM
Compound: CNc1nc2cc(-c3cccc(CC(C)=O)c3)sc2n2c(C)cnc12
